Data from patent US20210246128A1, “BICYCLE TOPOISOMERASE I INHIBITING COMPOUNDS, PROCESS FOR PREPARATION AND USE THEREOF” (Council of Scientific & Industrial Research, priority 2018, published 2021).
Converted amounts (≈) assume the structure as drawn. Where two headings read alike, the source gives them in different places. Values belong to the compound of their own block, whether it stands above or below them.

Key:
Plasma stability assay = assay type: in vitro ADME; conditions: pH 7.4, 37° C., 1 μM
Procedure: The stock solution of 10 mM of test compound in DMSO was prepared and stored at 4° C. 25 μM stock of test compound was prepared in acetonitrile: water by diluting from 10 mM stock (i.e. 2.5 μL of 10 mM stock solution was added to 997.5 μL of acetonitrile: water (50:50). The frozen plasma was thawed at room temperature and centrifuged at 1400×RCF (relative centrifugal force) 4° C., for 15 minutes. Approximately 90% of the clear supernatant fraction was transferred to a separate tube and was used for the assay.
For 0 min samples, plasma was heat inactivated at 56° C. for 45 min. To 72 μL of heat inactivated plasma, 3 μL of 25 μM test compound was added. A 25 μL aliquot of the mixture was taken and crashed with 200 μL of acetonitrile containing internal standard and further processed along with other time points. For other time point samples, final working stock of 1 μM was prepared by diluting in plasma (i.e. 8 μL of 25 μM acetonitrile:water stock was added to 192 μL of plasma). 200 μL of plasma containing the test compound was incubated for 2 hrs at 37° C. in shaker water bath with gentle shaking. 25 μL aliquot of sample at 0, 15, 30, 60 and 120 min was precipitated immediately with 200 μL of acetonitrile containing internal standard and centrifuged at 4000×RCF, 4° C. for 20 minutes. 150 μL of supernatant was diluted with 150 μL of water and analyzed on LC-MS/MS.

[1] = Solubility assay (pH 7.4 pION buffer, UV); assay type: physicochemical; conditions: pH 7.4 pION buffer, aqueous buffer, kinetic from dmso stock; pH 7.4 buffer, 18 hours incubation; read-out: Avg. Solubility (μg/mL) at pH 7.4
Procedure: 5 μL of 20 mM DMSO stock from the stock plate was added to the reaction deep well plate containing 495 μL of pH 7.4 pION buffer (including DMSO control) respectively and the samples were mixed and incubated for 18 hours. The plate was sealed well during the incubation process. The DMSO content in the sample was <1.0%. The concentration in deep well plates was 200 μM. 4 μL of 20 mM stock (including DMSO control) was added to 996 μL of acetonitrile to prepare the working stock plate. 75 μL of working stock was added to 75 μL of blank buffer and read on spectrophotometer as reference plate at 240 nm. At the end of the incubation period, 100 μL of sample from storage plate was vacuum filtered using a filter plate. This step wets the filters and the filtrate was discarded. Another 200 μL of the sample from deep well plate was vacuum filtered in to a new filter collection plate. 75 μL of the filtrate from the filter collection plate was transferred to a UV sample plate. 75 μL of acetonitrile was added to this UV plate. The solution was mixed and the spectrum was read using the UV spectrophotometer at 240 nm. Plates were read on spectramax using SoftMax Pro software version 5.3.

[2] = Caco-2 permeability (21 day culture of Caco-2 cell monolayer); assay type: in vitro ADME; conditions: human; for efflux ratio at 120 min, 10 μM: Caco-2, pH 7.4; for recovery at 120 min, 10 μM: Caco-2, pH 7.4, Caco-2; for Papp A→B at 120 min, 10 μM / Papp B→A at 120 min, 10 μM: pH 7.4, Caco-2, 10 μM; for Papp A→B at 120 min, 10 μM: read-out: Papp Apical to Basal; for Papp B→A at 120 min, 10 μM: read-out: Papp Basal to Apical
Procedure: 5 mL of 100 mM sodium pyruvate, 5 mL of 10× non-essential amino acids, 5 mL of penstrep were added to 100 mL of heat inactivated foetal bovine serum to 385 mL of DMEM aseptically and mixed thoroughly. One vial of Hank's balanced salt (Sigma-H1387) was dissolved in 900 mL of milli Q water; adjusted the pH to 7.4 and made up the volume to 1000 mL with the same. The solution was filter sterilized and stored at 4° C. Stock solution of test compound (10 mM) was prepared in DMSO. 10 mM stock was diluted with HBSS Buffer to a final concentration of 10 μM.
250 μL of DMEM was added to the basal compartment of 96 well multi-screen Caco-2 plate and seeded 12000 cells/well (0.16×10^6 cells/ml) in all the apical wells required and one well with only media as blank without cells, placed the Caco-2 plate in CO2 incubator at 37° C. for proliferation of cells.
On the day of assay, medium was removed and washed twice with HBSS Buffer and incubated with HBSS buffer for 30 min in an incubator and wells with TEER values >230 ohm·cm^2 were selected for the incubation. 75 μL of test compound was added to apical wells and 250 μL of HBSS buffer with 2% BSA was added to basal wells. 25 μL of basal samples was collected at 120 min and processed as stated below.
250 μL of test compound was added to basal wells and 75 μL of HBSS buffer with 2% BSA was added to apical wells. 25 μL of apical samples was collected at 120 min and processed as stated below.
Single point calibration curve in HBSS buffer with 2% BSA was used. Donor samples were diluted 1:1 with HBSS containing 2% BSA and receiver samples were diluted with 1.1 HBSS buffer and precipitated with 200 μL of acetonitrile containing internal standard and vortexed for 5 min @ 1000 rpm, centrifuged at 4000 rpm for 10 min. Finally 100 μL of supernatant was diluted with 200 μL of water and submitted for LC-MS/MS analysis.

[3] = molecular target: T1, recombinant human TopI (HTopI) (Homo sapiens, UniProt P11387); assay: Gel based plasmid DNA relaxation assay with recombinant TopI (in vitro); assay type: biochemical; conditions: recombinant human TopI; for IC50: plasmid DNA relaxation
T1 sequence (P11387 1-765): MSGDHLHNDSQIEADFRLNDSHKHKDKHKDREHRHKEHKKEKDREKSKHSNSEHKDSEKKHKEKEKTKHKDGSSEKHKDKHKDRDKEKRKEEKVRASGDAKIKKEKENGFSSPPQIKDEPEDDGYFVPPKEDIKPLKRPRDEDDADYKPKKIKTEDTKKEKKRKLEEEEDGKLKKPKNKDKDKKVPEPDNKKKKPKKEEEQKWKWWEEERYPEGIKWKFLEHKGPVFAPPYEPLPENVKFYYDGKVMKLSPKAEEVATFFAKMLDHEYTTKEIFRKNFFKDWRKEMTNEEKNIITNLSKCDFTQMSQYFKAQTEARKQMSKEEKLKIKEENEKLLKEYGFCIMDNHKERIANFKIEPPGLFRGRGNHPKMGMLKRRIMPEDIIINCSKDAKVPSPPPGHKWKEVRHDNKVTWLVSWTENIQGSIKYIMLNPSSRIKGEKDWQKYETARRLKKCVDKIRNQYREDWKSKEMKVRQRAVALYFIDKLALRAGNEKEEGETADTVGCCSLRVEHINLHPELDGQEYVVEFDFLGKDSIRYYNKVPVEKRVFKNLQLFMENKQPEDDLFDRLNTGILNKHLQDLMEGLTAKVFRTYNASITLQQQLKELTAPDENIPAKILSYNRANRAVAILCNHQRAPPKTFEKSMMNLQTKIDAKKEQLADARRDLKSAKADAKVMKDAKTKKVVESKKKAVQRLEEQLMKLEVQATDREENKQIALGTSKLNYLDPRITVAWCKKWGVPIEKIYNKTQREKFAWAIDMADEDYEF
Procedure: (§1) Human ToPI Inhibition in Plasmid DNA Relaxation Assays with Recombinant TopI (In Vitro) or MCF7 Cell Lysates (Ex Vivo)
(§2) Relaxation of supercoiled pBSSK(^+) DNA with recombinant human TopI (HTopI) at a molar ratio of 3:1 at 37° C. for 30 minutes was performed

[4] = molecular target: T2, endogenous TopI from the whole cell extracts of human breast adenocarcinoma (MCF7) cell (Homo sapiens, UniProt P11387); assay: Plasmid DNA relaxation assay with MCF7 cell lysates (ex vivo); assay type: biochemical; conditions: MCF7 cell lysates as source of TopI
T2 construct: TopI enzyme in the extract is conserved in its native structure among a plethora of other cellular proteins; endogenous in cells; host or cells: MCF7 whole cell extract
T2 sequence (P11387 1-765): T1 sequence (P11387 1-765)
Procedure: as §1, §2
cellular extracts were utilized as a source of TopI (ex vivo) in plasmid DNA relaxation assays. TopI enzyme in the extract is conserved in its native structure among a plethora of other cellular proteins.

[5] = Lipophilicity assay (octanol/buffer Log D); conditions: n-octanol/sodium phosphate buffer, pH 7.4
Procedure: 1.56 g NaH2PO4.2H2O was dissolved in 0.5 L water in a 1 L beaker. After adjusting pH to 7.4 using NaOH solution, the volume was made up to 1 L. Equal volumes of sodium phosphate buffer (10 mM, pH 7.4) and n-octanol were added to a separation funnel and mixed thoroughly by shaking and inverting the funnel several times. The two layers were allowed to separate for 2 days and then dispensed in two separate glass bottles. 10 mM stock solution was prepared in 100% DMSO and stored at 4° C. 500 μL of organic phase (1-octanol) was added to each well of a 2 mL deep well plate, followed by 500 μL of buffer and 15 μL of test substance was added. The plate was vortexed for 1 hr on a plate shaker at 1200 rpm. After incubation, the samples were allowed to equilibrate for 20 min and then centrifuged at 4000 rpm for 30 min for complete phase separation and analysed by LC-UV.
Log D=Log(area of octanol/area of buffer)
Mean, SD and % CV for each set of triplicates were calculated

calf thymus (CT) DNA = assay: Ethidium bromide (EtBr) displacement assay; assay type: binding; conditions: 1 μM EtBr, 5 nM CT DNA, 0-200 μM compound

Structure (SMILES): COc1ccc(-c2ccc3ncc(-c4nnco4)c(NCCN4CCOCC4)c3c2)cc1 [Compound 9, 6-(4-methoxyphenyl)-N-(2-morpholinoethyl)-3-(1,3,4-oxadiazol-2-yl)quinolin-4-amine]
- inhibition at 10 µM ([3]; at 10 μM, read-out: In vitro inhibition at 10 μM): 45%
- melting point: 156 °C

Structure (SMILES): COc1cc(NS(C)(=O)=O)ccc1Nc1c2ccccc2nc2ccccc12 [m-AMSA]
- displacement of bound EtBr (DNA intercalation) (calf thymus (CT) DNA): capability to dislodge the bound fluorophore (EtBr) at 50 μM concentration

Structure (SMILES): COc1ccc(-c2ccc3ncc(-c4nnco4)c(NCCN4CCOCC4)c3c2)cc1OC [Compound 8, 6-(3,4-dimethoxyphenyl)-N-(2-morpholinoethyl)-3-(1,3,4-oxadiazol-2-yl)quinolin-4-amine]
- melting point: 116 °C

Structure (SMILES): COc1cc([C@@H]2c3cc4c(cc3[C@@H](O[C@@H]3O[C@@H]5CO[C@@H](C)O[C@H]5[C@H](O)[C@H]3O)[C@H]3COC(=O)[C@H]23)OCO4)cc(OC)c1O [etoposide]
- displacement of bound EtBr (DNA intercalation) (calf thymus (CT) DNA): unable to displace EtBr

The remaining lines, values ahead:

- Mean % remaining at 2 hrs in human Plasma (Plasma stability assay): 14.62%
- solubility at 18 h [1]: 44 µg/mL (≈ 111 µM)
- efflux ratio at 120 min, 10 μM [2]: 40
- recovery at 120 min, 10 μM ([2]; read-out: A to B % Recovery): 84.8%
- recovery at 120 min, 10 μM ([2]; read-out: B to A % Recovery): 74.2%
- Papp A→B at 120 min, 10 μM [2]: 9.5 nm/s
- Papp B→A at 120 min, 10 μM [2]: 383 nm/s
- IC50 [3]: 0.397 µM
- IC50 [4]: 1.25 µM
- logD [5]: 3.54
Structure (SMILES): c1cncc(-c2ccc3ncc(-c4nnco4)c(NCCCn4ccnc4)c3c2)c1 [Compound 30, N-(3-(1H-imidazol-1-yl)propyl)-3-(1,3,4-oxadiazol-2-yl)-6-(pyridin-3-yl)quinolin-4-amine]

- melting point: 222 °C
Structure (SMILES): Cc1ccc(-c2ccc3ncc(-c4nnco4)c(NCCN4CCOCC4)c3c2)cc1[N+](=O)[O-] [Compound 10, 6-(4-methyl-3-nitrophenyl)-N-(2-morpholinoethyl)-3-(1,3,4-oxadiazol-2-yl)quinolin-4-amine]

- melting point: 190 °C
Structure (SMILES): N#Cc1ccc(-c2ccc3ncc(-c4nnco4)c(NCCN4CCOCC4)c3c2)cc1 [Compound 11, 4-(4-(2-morpholinoethylamino)-3-(1,3,4-oxadiazol-2-yl)quinolin-6-yl)benzonitrile]

- IC50 [3]: 1.05 µM
- IC50 [4]: 4.11 µM
- melting point: 96 °C
Structure (SMILES): COc1cccc(-c2ccc3ncc(-c4nnco4)c(NCCCn4ccnc4)c3c2)c1 [Compound 82, N-(3-(1H-Imidazol-1-yl)propyl)-6-(3-methoxyphenyl)-3-(1,3,4-oxadiazol-2-yl)quinolin-4-amine]

- Mean % remaining at 2 hrs in human Plasma (Plasma stability assay): 102.28%
- solubility at 18 h [1]: 27.9 µg/mL (≈ 65.4 µM)
- efflux ratio at 120 min, 10 μM [2]: 4.01
- recovery at 120 min, 10 μM ([2]; read-out: A to B % Recovery): 83.9%
- recovery at 120 min, 10 μM ([2]; read-out: B to A % Recovery): 92%
- Papp A→B at 120 min, 10 μM [2]: 78.9 nm/s
- Papp B→A at 120 min, 10 μM [2]: 315 nm/s
- IC50 [3]: 0.017 µM
- IC50 [4]: 0.625 µM
- logD [5]: 2.79
Structure (SMILES): COc1ccc(-c2ccc3ncc(-c4nnco4)c(NCCCn4ccnc4)c3c2)cn1 [Compound 33, N-(3-(1H-imidazol-1-yl)propyl)-6-(6-methoxypyridin-3-yl)-3-(1,3,4-oxadiazol-2-yl)quinolin-4-amine]
